Data from ChEMBL document CHEMBL5029143, “Discovery of New Potent Positive Allosteric Modulators of Dopamine D2 Receptors: Insights into the Bioisosteric Replacement of Proline to 3-Furoic Acid in the Melanostatin Neuropeptide” (J Med Chem, 2021).
Residues, ends and D or L forms follow the SMILES beside them.

What was measured:
[1] = Neurotoxicity in human SH-SY5Y cells assessed as reduction in cell viability at 200 uM measured after 48 hrs by MTT reduction assay (Rvb= 100 +/- 2.79%); type: cell-based; conditions: read-out: Activity
[2] = target: D(2) dopamine receptor (Homo sapiens) (UniProt P14416); conditions: CHO, filed as positive allosteric modulator, dose 0.01 nM, time 10.0 min
[3] = Neurotoxicity in human SH-SY5Y cells assessed as reduction in cell viability at 100 uM measured after 48 hrs by MTT reduction assay (Rvb= 100 +/- 2.79%); type: cell-based; conditions: read-out: Activity
SH-SY5Y = test: Cytotoxicity against human differentiated SH-SY5Y cells assessed as reduction in cell viability at 100 uM measured after 48 hrs by phase contrast microscopic analysis; type: cell-based

Sequence of D(2) dopamine receptor (Homo sapiens) (P14416 whole entry): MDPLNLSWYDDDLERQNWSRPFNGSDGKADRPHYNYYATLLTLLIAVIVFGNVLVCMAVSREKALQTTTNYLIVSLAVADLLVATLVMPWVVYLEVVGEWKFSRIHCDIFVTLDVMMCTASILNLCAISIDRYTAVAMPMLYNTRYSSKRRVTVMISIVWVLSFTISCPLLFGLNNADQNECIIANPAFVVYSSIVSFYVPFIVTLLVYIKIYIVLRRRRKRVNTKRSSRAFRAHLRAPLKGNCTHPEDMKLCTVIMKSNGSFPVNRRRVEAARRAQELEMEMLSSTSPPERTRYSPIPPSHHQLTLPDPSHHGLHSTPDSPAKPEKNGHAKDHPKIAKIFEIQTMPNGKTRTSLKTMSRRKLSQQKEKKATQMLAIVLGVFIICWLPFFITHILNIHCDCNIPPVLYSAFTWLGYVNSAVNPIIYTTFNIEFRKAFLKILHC

Structure (SMILES)	viability at 48 h, 200 µM [1] [%]	Emax [2] [%]	viability at 48 h, 100 µM [3] [%]	Activity (SH-SY5Y)
CC(C)C[C@H](NC(=O)c1ccoc1)C(=O)NCC(N)=O	86	–	–	–
CC(C)C[C@H](NC(=O)[C@@H]1CCCN1)C(=O)NCC(N)=O (H-Pro-Leu-Gly-NH2)	–	93.6	–	–
NCCc1ccc(O)c(O)c1 [DOPAMINE]	66.4	–	96.9	–
NCCc1cc(O)c(O)cc1O [OXIDOPAMINE]	4.06	–	48.6	Toxic
